Experiments:
[1] = xn = mol fraction of the nth substance listed; settings: 100 kPa, Liquid; for viscosity: Falling or rolling sphere viscometry; for speed of sound: Frequency=3 MHz, Single path-length method; for mass density: Vibrating tube method
[2] = refractive index (Na D-line) (dimensionless); xn = mol fraction of the nth substance listed; settings: 100 kPa, Liquid, Standard Abbe refractometry

CCC(C)c1ccccc1 (centres undefined) [(1-methylpropyl)benzene] + CCCCCCCCCCCCCCCC
Settings | mass density, [1] [kg/m3] | refractive index, [2] | speed of sound, [1] [m/s] | viscosity, [1] [mPa·s]
298.15 K, x2 = 0 | 857.89 | 1.4876 | 1313.8 | 0.912
298.15 K, x2 = 0.0702 | 846.08 | 1.4801 | 1312 | 1.004
298.15 K, x2 = 0.1382 | 836.12 | 1.4738 | 1311.4 | 1.112
298.15 K, x2 = 0.2541 | 821.7 | 1.4647 | 1312.4 | 1.33
298.15 K, x2 = 0.3113 | 815.5 | 1.4608 | 1313.7 | 1.449
298.15 K, x2 = 0.4028 | 806.76 | 1.4553 | 1316.1 | 1.644
298.15 K, x2 = 0.4757 | 800.6 | 1.4515 | 1318.4 | 1.793
298.15 K, x2 = 0.5349 | 796.04 | 1.4486 | 1320.7 | 1.924
298.15 K, x2 = 0.6167 | 790.37 | 1.4451 | 1323.2 | 2.101
298.15 K, x2 = 0.7476 | 782.25 | 1.4401 | 1328.3 | 2.387
298.15 K, x2 = 0.832 | 777.71 | 1.4373 | 1331.6 | 2.587
308.15 K, x2 = 0 | 849.78 | 1.4827 | 1274.5 | 0.796
308.15 K, x2 = 0.0702 | 838.16 | 1.4753 | 1273.2 | 0.874
308.15 K, x2 = 0.1382 | 828.35 | 1.469 | 1273.1 | 0.954
308.15 K, x2 = 0.2541 | 814.15 | 1.46 | 1274.7 | 1.128
308.15 K, x2 = 0.3113 | 808.04 | 1.4562 | 1276.1 | 1.223
308.15 K, x2 = 0.4028 | 799.42 | 1.4508 | 1278.8 | 1.375
308.15 K, x2 = 0.4757 | 793.34 | 1.447 | 1281.2 | 1.493
308.15 K, x2 = 0.5349 | 788.84 | 1.4441 | 1283.5 | 1.592
308.15 K, x2 = 0.6167 | 783.24 | 1.4407 | 1286.2 | 1.734
308.15 K, x2 = 0.7476 | 775.3 | 1.4358 | 1291.7 | 1.95
308.15 K, x2 = 0.832 | 770.73 | 1.433 | 1294.6 | 2.099
318.15 K, x2 = 0 | 841.64 | 1.4778 | 1235.7 | 0.707
318.15 K, x2 = 0.0702 | 830.21 | 1.4704 | 1235 | 0.771
318.15 K, x2 = 0.1382 | 820.55 | 1.4642 | 1235.3 | 0.838
318.15 K, x2 = 0.2541 | 806.57 | 1.4553 | 1237.4 | 0.975
318.15 K, x2 = 0.3113 | 800.55 | 1.4516 | 1239 | 1.05
318.15 K, x2 = 0.4028 | 792.05 | 1.4462 | 1241.9 | 1.174
318.15 K, x2 = 0.4757 | 786.06 | 1.4425 | 1244.5 | 1.275
318.15 K, x2 = 0.5349 | 781.7 | 1.4398 | 1246.8 | 1.356
318.15 K, x2 = 0.6167 | 776.09 | 1.4364 | 1249.7 | 1.468
318.15 K, x2 = 0.7476 | 768.18 | 1.4315 | 1254.5 | 1.642
318.15 K, x2 = 0.832 | 763.74 | 1.4288 | 1258.2 | 1.762

CCCc1ccccc1 [propylbenzene] + CCCCCCCCCCCCCCCC
Settings | mass density, [1] [kg/m3] | refractive index, [2] | speed of sound, [1] [m/s] | viscosity, [1] [mPa·s]
298.15 K, x2 = 0 | 858.45 | 1.4896 | 1320.6 | 0.792
298.15 K, x2 = 0.0627 | 846.52 | 1.4817 | 1317.3 | 0.872
298.15 K, x2 = 0.1009 | 840.12 | 1.4775 | 1315.7 | 0.928
298.15 K, x2 = 0.207 | 825.01 | 1.4677 | 1314.8 | 1.092
298.15 K, x2 = 0.3093 | 813.2 | 1.4602 | 1315.7 | 1.269
298.15 K, x2 = 0.3863 | 805.79 | 1.4554 | 1317.7 | 1.408
298.15 K, x2 = 0.5055 | 796.08 | 1.4492 | 1320.9 | 1.654
298.15 K, x2 = 0.5603 | 792.22 | 1.4467 | 1322.7 | 1.776
298.15 K, x2 = 0.7042 | 783.32 | 1.441 | 1327.7 | 2.114
298.15 K, x2 = 0.7728 | 779.76 | 1.4387 | 1330 | 2.291
298.15 K, x2 = 0.8468 | 776.25 | 1.4365 | 1332.8 | 2.505
308.15 K, x2 = 0 | 850.01 | 1.4844 | 1280.6 | 0.699
308.15 K, x2 = 0.0627 | 838.3 | 1.4766 | 1277.8 | 0.766
308.15 K, x2 = 0.1009 | 832.03 | 1.4724 | 1276.8 | 0.813
308.15 K, x2 = 0.207 | 817.19 | 1.4628 | 1276.4 | 0.949
308.15 K, x2 = 0.3093 | 805.67 | 1.4554 | 1277.9 | 1.09
308.15 K, x2 = 0.3863 | 798.39 | 1.4509 | 1279.9 | 1.203
308.15 K, x2 = 0.5055 | 788.78 | 1.4448 | 1283.6 | 1.396
308.15 K, x2 = 0.5603 | 784.97 | 1.4424 | 1285.4 | 1.495
308.15 K, x2 = 0.7042 | 776.34 | 1.4368 | 1290.5 | 1.761
308.15 K, x2 = 0.7728 | 772.78 | 1.4346 | 1292.9 | 1.886
308.15 K, x2 = 0.8468 | 769.24 | 1.4323 | 1295.7 | 2.05
318.15 K, x2 = 0 | 841.53 | 1.4792 | 1241 | 0.626
318.15 K, x2 = 0.0627 | 830.05 | 1.4713 | 1238.8 | 0.683
318.15 K, x2 = 0.1009 | 823.89 | 1.4673 | 1238.2 | 0.722
318.15 K, x2 = 0.207 | 809.33 | 1.4578 | 1238.5 | 0.835
318.15 K, x2 = 0.3093 | 798.09 | 1.4506 | 1240.4 | 0.952
318.15 K, x2 = 0.3863 | 790.87 | 1.4461 | 1242.7 | 1.044
318.15 K, x2 = 0.5055 | 781.4 | 1.4402 | 1246.6 | 1.2
318.15 K, x2 = 0.5603 | 777.68 | 1.4378 | 1248.6 | 1.28
318.15 K, x2 = 0.7042 | 769.05 | 1.4324 | 1253.6 | 1.485
318.15 K, x2 = 0.7728 | 765.61 | 1.4302 | 1256.2 | 1.585
318.15 K, x2 = 0.8468 | 762.23 | 1.428 | 1258.9 | 1.713

— the NIST ThermoML archive (doi:10.1016/j.jct.2018.08.036)
